Earlier results in US20130303466A1, “Chemosensory Receptor Ligand-Based Therapies” (ELCELYX THERAPEUTICS, INC., priority 2010, published 2013).

system: GLP-1; details: rats; with administration of a DPP-IV inhibitor

| Molecule | increase in GLP-1 |
| --- | --- |
| OCCN1C[C@H](O)[C@@H](O)[C@H](O)[C@H]1CO [miglitol] | synergistic |

system: gut hormone release; details: humans, instillation into the duodenum

| Molecule | gut hormone release |
| --- | --- |
| OC[C@H]1O[C@H](O[C@]2(CCl)O[C@H](CCl)[C@@H](O)[C@@H]2O)[C@H](O)[C@@H](O)[C@H]1Cl [sucralose] | no effect |

target: T1, sweet receptor (Homo sapiens, UniProt Q7RTX0+Q8TE23); details: relative sweetness on a weight comparison basis to sucrose (= 1.0); ranges: relative sweetness varied with the concentration of sucrose; adapted from Kim et al., 2002
T1 sequence (Q8TE23 20-839): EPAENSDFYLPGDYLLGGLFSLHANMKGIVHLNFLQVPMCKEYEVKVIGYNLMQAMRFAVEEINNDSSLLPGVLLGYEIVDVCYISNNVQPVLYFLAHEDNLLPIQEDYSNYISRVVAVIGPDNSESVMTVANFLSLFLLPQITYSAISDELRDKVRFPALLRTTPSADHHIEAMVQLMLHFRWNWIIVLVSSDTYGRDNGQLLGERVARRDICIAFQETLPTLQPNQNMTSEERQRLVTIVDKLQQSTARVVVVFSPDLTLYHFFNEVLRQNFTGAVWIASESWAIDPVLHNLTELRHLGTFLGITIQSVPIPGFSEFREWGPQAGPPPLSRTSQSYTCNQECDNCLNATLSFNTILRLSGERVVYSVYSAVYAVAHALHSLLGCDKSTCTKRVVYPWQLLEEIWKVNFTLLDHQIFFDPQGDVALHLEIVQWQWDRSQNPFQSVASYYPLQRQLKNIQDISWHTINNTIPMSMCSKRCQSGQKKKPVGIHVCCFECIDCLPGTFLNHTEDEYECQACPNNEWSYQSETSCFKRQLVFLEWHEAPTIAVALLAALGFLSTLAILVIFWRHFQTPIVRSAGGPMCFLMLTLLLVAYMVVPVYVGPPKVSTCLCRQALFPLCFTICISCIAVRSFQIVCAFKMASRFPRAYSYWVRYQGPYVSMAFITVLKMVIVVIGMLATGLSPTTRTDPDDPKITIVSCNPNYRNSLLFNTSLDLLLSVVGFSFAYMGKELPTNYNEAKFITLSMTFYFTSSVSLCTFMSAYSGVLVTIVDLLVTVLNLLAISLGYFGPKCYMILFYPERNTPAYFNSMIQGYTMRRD
T1 sequence (Q7RTX0 21-852): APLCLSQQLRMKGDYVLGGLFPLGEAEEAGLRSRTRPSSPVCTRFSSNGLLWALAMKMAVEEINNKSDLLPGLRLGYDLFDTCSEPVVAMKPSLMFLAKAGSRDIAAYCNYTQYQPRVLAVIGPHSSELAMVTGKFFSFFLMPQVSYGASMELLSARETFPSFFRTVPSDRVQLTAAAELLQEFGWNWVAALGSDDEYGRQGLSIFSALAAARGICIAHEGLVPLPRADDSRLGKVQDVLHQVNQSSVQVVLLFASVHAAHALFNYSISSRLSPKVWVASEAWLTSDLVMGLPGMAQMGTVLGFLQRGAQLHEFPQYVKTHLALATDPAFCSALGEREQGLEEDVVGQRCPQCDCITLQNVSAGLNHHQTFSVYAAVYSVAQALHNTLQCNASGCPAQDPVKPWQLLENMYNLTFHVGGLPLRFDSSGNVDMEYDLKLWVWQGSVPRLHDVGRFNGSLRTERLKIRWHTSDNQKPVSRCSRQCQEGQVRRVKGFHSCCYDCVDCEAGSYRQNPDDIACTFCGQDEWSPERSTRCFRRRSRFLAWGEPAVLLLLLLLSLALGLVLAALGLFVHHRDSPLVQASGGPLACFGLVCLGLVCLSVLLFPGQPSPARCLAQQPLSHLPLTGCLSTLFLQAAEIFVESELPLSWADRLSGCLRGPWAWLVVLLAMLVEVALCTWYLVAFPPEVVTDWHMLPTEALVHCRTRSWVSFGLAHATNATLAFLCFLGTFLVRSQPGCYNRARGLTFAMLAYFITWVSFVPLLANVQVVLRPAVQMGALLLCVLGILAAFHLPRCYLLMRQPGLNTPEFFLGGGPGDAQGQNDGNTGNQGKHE

| Molecule | Sweetness/potency |
| --- | --- |
| Scandenoside R6 [Scandenoside R6 (39)] | 54 |
| CC(=O)O[C@H]1C(=O)c2c(O)cc(O)cc2O[C@@H]1c1ccc(O)c(O)c1 [(2R,3R)-Dihydroquercetin 3-O-acetate] | 80 |
| C=C(C)C1CC=C(/C=N/O)CC1 (stereo not shown) [Perillartine (10), Perillartine] | 370 |
| Brazzein: sweet protein from Pentadiplandra brazzeana Baillon (QDKCKKVYENYPVSKCQLANQCNYDCKLDKHARSGECFYDEKRNLQCICDYCEY; UniProt P56552 1-54, looked up) | 2,000 |
| O=C/C=C/c1ccccc1 [Trans-Cinnamaldehyde (79), Trans-Cinnamaldehyde] | 50 |
| Thaumatin | 1,600 |

More lines, now with the values ahead:

| Sweetness/potency | Molecule |
| --- | --- |
| 30 | CC1=CC[C@@H]([C@@H](C)[C@H]2CC[C@@]3(C)[C@@H]4CC[C@H]5[C@](C)(C(=O)O)[C@@H](O[C@@H]6O[C@H](CO)[C@@H](O)[C@H](O)[C@H]6O)CC[C@@]56C[C@@]46CC[C@]23C)OC1=O [Abrusoside A (42), Abrusoside A] |
| 220 | CC1(C(=O)O)C=C2C3CCC4C5(C=O)CCC(OC6OC(C(=O)O)C(O)C(O)C6OC6OCC(O)C(O)C6O)C(C)(C)C5CCC4(C)C3(C)CCC2(C)CC1 (stereo not shown) [Periandrin V (61), Periandrin V] |
| 35 | Oc1ccc([C@H]2Oc3c(c(O)cc4c3[C@H]3c5c(O)cc(O)cc5O[C@@](c5ccc(O)cc5)(O4)[C@@H]3O)[C@H](c3c(O)cc(O)c4c3O[C@H](c3ccc(O)cc3)[C@@H](O)C4)[C@H]2O)cc1 [Selligueain A (96), Selligueain A] |
| 30 | Rebaudioside C [Rebaudioside C (17)] |
| 15 | COc1c(O)cc2c(c1O)C(=O)[C@H](O)[C@@H](c1ccc(O)c(O)c1)O2 [(2R,3R)-2,3-Dihydro-5,7,3′,4′-tetrahydroxy-6-methoxyflavonol] |
| 150 | Rebaudioside B [Rebaudioside B (16)] |
| 600 | Polypodoside A [Polypodoside A (65)] |
| 5 | CC1(C)C[C@H]2C3=CC[C@@H]4[C@@]5(C)CC[C@H](O[C@@H]6O[C@H](CO[C@@H]7OC[C@H](O)[C@H](O)[C@H]7O[C@@H]7OC[C@@H](O)[C@H](O)[C@H]7O)[C@@H](O)[C@H](O)[C@H]6O)C(C)(C)[C@@H]5CC[C@@]4(C)[C@]3(C)C[C@@H](O)[C@@]23C[C@@H]1OC3=O [Albiziasaponin A (50), Albiziasaponin A] |
| 250 | Cyclocaryoside I [Cyclocaryoside I (48)] |
| 25 | COc1c(O)cc2c(c1O)C(=O)[C@H](OC(C)=O)[C@@H](c1ccc(O)c(O)c1)O2 [(2R,3R)-2,3-Dihydro-5,7,3′,4′-tetrahydroxy-6-methoxy-3-O-acetylflavonol] |
| 210 | C=C1C[C@@]23CC[C@H]4[C@@](C)(CCC[C@@]4(C)C(=O)O[C@@H]4O[C@H](CO)[C@@H](O)[C@H](O)[C@H]4O)[C@@H]2CC[C@]1(O[C@@H]1O[C@H](CO)[C@@H](O)[C@H](O)[C@H]1O[C@@H]1O[C@H](CO)[C@@H](O)[C@H](O)[C@H]1O)C3 [Stevioside (5), Stevioside] |
